Source: ChEMBL document CHEMBL1201862, “PubChem BioAssay data set” (2004)
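Cultured in 96-well plates, cells were exposed to test compound for 48 hours across five concentrations. At the GI50, growth is halved.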 The source made the active and inactive calls. Rule as the data show it: active = GI50 up to about 1.1 µM and inactive = higher.

Assays:
Assay in all cases: NCI tumour cell line growth inhibition, 48 h
786-0 = test system: 786-0
A498 = test system: A498
ACHN = test system: ACHN
HOP-92 = test system: HOP-92
K562 = test system: K562
NCI-H23 = test system: NCI-H23
NCI-H460 = test system: NCI-H460
NCI-H522 = test system: NCI-H522
OVCAR-3 = test system: OVCAR-3
RXF 393 = test system: RXF 393
SF-268 = test system: SF-268
SK-MEL-5 = test system: SK-MEL-5
SR = test system: SR
SW-620 = test system: SW-620
UACC-257 = test system: UACC-257
UACC-62 = test system: UACC-62
UO-31 = test system: UO-31
LOX IMVI = test system: LOX IMVI

Measured: GI50

O=C1N=C(Nc2ccccc2Cl)SC1C(=O)Nc1ccc([N+](=O)[O-])cc1[N+](=O)[O-] (stereo unspecified)
inactive: 786-0 > 100 µM | A498 > 100 µM | ACHN > 100 µM | HOP-92 32.5 µM | K562 > 100 µM | NCI-H23 > 100 µM | NCI-H460 > 100 µM | NCI-H522 > 100 µM | OVCAR-3 > 100 µM | RXF 393 > 100 µM | SF-268 > 100 µM | SK-MEL-5 > 100 µM | SR > 100 µM | SW-620 > 100 µM | UACC-257 > 100 µM | UACC-62 > 100 µM | UO-31 72.4 µM

O=C(/C=C/c1ccccc1)c1ccc(NCc2nc3ccccc3[nH]2)cc1
inactive: 786-0 3.81 µM | A498 5.24 µM | ACHN 7.66 µM | HOP-92 6.18 µM | K562 2.51 µM | LOX IMVI 1.69 µM | NCI-H23 2.55 µM | NCI-H460 3.27 µM | NCI-H522 4.14 µM | OVCAR-3 2.8 µM | RXF 393 5.22 µM | SF-268 6.44 µM | SK-MEL-5 2.45 µM | SR 16.1 µM | SW-620 2.75 µM | UACC-257 3.73 µM | UACC-62 8.05 µM | UO-31 7.21 µM

O=C1C/C(=C/c2ccc(/C=C3/CC(=O)N(c4cccc(Br)c4)C3=O)cc2)C(=O)N1c1cccc(Br)c1
inactive: 786-0 58.1 µM | A498 > 71 µM | ACHN > 100 µM | HOP-92 50.2 µM | K562 > 67 µM | LOX IMVI > 100 µM | NCI-H23 > 100 µM | NCI-H460 > 100 µM | NCI-H522 > 100 µM | OVCAR-3 > 100 µM | RXF 393 30.1 µM | SF-268 > 100 µM | SK-MEL-5 > 100 µM | SR 97.3 µM | SW-620 > 100 µM | UACC-257 > 100 µM | UACC-62 > 100 µM | UO-31 > 100 µM

O=C1[C@H]2ON(c3ccccc3)C(c3ccc(Cl)cc3)[C@H]2C(=O)N1c1ccc(Cc2ccc(N3C(=O)[C@@H]4ON(c5ccccc5)C(c5ccc(Cl)cc5)[C@@H]4C3=O)cc2)cc1 (stereo partly specified)
inactive: 786-0 > 100 µM | A498 > 100 µM | ACHN > 100 µM | K562 > 100 µM | LOX IMVI > 100 µM | NCI-H23 > 100 µM | NCI-H460 > 100 µM | NCI-H522 > 100 µM | OVCAR-3 > 100 µM | RXF 393 > 100 µM | SF-268 > 100 µM | SK-MEL-5 61.7 µM | SR > 100 µM | SW-620 > 100 µM | UACC-257 > 100 µM | UACC-62 > 100 µM | UO-31 > 100 µM

CCCC(Sc1ccccc1)P(=O)(c1ccccc1)c1ccccc1 (stereo unspecified)
inactive: 786-0 37.7 µM | A498 28.3 µM | ACHN 19.8 µM | HOP-92 21.8 µM | K562 29.9 µM | LOX IMVI 35.6 µM | NCI-H23 35.6 µM | NCI-H460 29.8 µM | NCI-H522 31.5 µM | OVCAR-3 41.1 µM | RXF 393 41.8 µM | SF-268 32.5 µM | SK-MEL-5 25.4 µM | SR 20.6 µM | SW-620 41.9 µM | UACC-257 35.1 µM | UACC-62 15.1 µM | UO-31 > 100 µM

COC(=O)c1nc(C(=O)OC)c2c([nH]c3ccccc32)c1C(=O)OC
inactive: 786-0 > 100 µM | A498 > 100 µM | HOP-92 > 100 µM | LOX IMVI 58.5 µM | NCI-H23 > 100 µM | NCI-H460 46.1 µM | NCI-H522 > 10 µM | OVCAR-3 > 100 µM | RXF 393 31.8 µM | SK-MEL-5 9.79 µM | SR 70.3 µM | SW-620 > 100 µM | UACC-257 > 100 µM | UACC-62 85.1 µM | UO-31 21.3 µM

Cn1c2cc(O)cc(O)c2c(=O)c2c([N+](=O)[O-])cccc21
inactive: 786-0 > 100 µM | A498 > 100 µM | ACHN > 100 µM | HOP-92 > 100 µM | K562 > 100 µM | LOX IMVI > 100 µM | NCI-H23 > 100 µM | NCI-H460 > 100 µM | NCI-H522 > 100 µM | OVCAR-3 > 100 µM | RXF 393 > 100 µM | SF-268 > 100 µM | SK-MEL-5 > 100 µM | SR > 100 µM | SW-620 > 100 µM | UACC-257 > 100 µM | UACC-62 > 100 µM | UO-31 > 100 µM

[O-][S+]1Cc2ccccc2CS1 (stereo unspecified)
inactive: 786-0 15.7 µM | A498 76.6 µM | ACHN 18.8 µM | HOP-92 14 µM | K562 17.9 µM | LOX IMVI 7.46 µM | NCI-H23 14.1 µM | NCI-H460 22.7 µM | NCI-H522 6.81 µM | OVCAR-3 15.1 µM | RXF 393 15.9 µM | SF-268 22.9 µM | SK-MEL-5 43.2 µM | SR 20 µM | SW-620 13.9 µM | UACC-257 14.7 µM | UACC-62 13.2 µM | UO-31 21.4 µM

CCOC(=O)/C(I)=C/c1cc(OC)c(OC)c(OC)c1
inactive: 786-0 4.44 µM | A498 25.6 µM | ACHN 7.14 µM | HOP-92 11.6 µM | K562 3.86 µM | LOX IMVI 1.75 µM | NCI-H23 3.08 µM | NCI-H460 40.6 µM | NCI-H522 4.14 µM | OVCAR-3 3.94 µM | SF-268 1.36 µM | SK-MEL-5 7.83 µM | SR 2.98 µM | SW-620 3.55 µM | UACC-257 10.8 µM | UACC-62 4.5 µM | UO-31 5.79 µM

CC(=O)Nc1ccc(S(=O)(=O)Nc2cnc3ccccc3n2)cc1
inactive: 786-0 > 100 µM | A498 > 100 µM | ACHN > 100 µM | HOP-92 > 100 µM | K562 > 100 µM | LOX IMVI > 100 µM | NCI-H23 > 100 µM | NCI-H460 > 100 µM | NCI-H522 > 100 µM | OVCAR-3 > 100 µM | RXF 393 > 100 µM | SF-268 > 100 µM | SK-MEL-5 > 100 µM | SR > 100 µM | SW-620 > 100 µM | UACC-257 > 100 µM | UACC-62 > 100 µM | UO-31 > 100 µM

COc1ccc(/C=C2\CCC(CCN(C)C)(C3=CCCC3)C2=O)cc1Br (stereo unspecified)
inactive: 786-0 3.78 µM | A498 8.95 µM | ACHN 9.29 µM | HOP-92 2.97 µM | K562 2.58 µM | LOX IMVI 4.06 µM | NCI-H23 13.9 µM | NCI-H460 10.1 µM | NCI-H522 2.06 µM | OVCAR-3 5.74 µM | RXF 393 2.22 µM | SF-268 7.03 µM | SK-MEL-5 1.71 µM | SR 1.51 µM | SW-620 7.66 µM | UACC-257 2.43 µM | UO-31 5.35 µM
